Key:
[1] = test system: human biphenotypic B myelomonocytic leukemia (MV4-11) cells; assay: Antiproliferative assay (MTT or SRB), MV4-11; assay type: cell-based; conditions: for IC50: Homo sapiens, MV4-11, MV-4-11, read-out: IC50 ± SD, antiproliferative activity; for Calculated Selectivity Index SI: IC50 Balb/3T3 / IC50 MV-4-11
Procedure: (§1) Cell preparation, an in vitro antiproliferative assay, and MTT and SRB cytotoxic tests were performed according to the literature.

[2] = target: T1, human neutrophil elastase (HNE) (Homo sapiens, UniProt P08246); assay: Human neutrophil elastase inhibition assay (spectrofluorimetric, MeOSuc-AAPV-AMC substrate)
T1 sequence (P08246 30-267): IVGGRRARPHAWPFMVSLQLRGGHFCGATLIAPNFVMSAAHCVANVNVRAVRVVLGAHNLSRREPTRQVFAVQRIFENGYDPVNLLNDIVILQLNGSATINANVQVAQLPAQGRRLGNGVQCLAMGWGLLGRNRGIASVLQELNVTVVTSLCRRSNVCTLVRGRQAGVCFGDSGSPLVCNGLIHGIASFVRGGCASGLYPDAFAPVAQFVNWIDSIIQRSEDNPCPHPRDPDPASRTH
Procedure: The inhibition of human neutrophil elastase was carried out by the spectrofluorimetric method using N-methoxysuccinyl-Ala-Ala-Pro-Val-7-amido-4-methylcoumarin (MeOSuc-AAPV-AMC) as substrate.

[3] = test system: human breast adenocarcinoma (MDA-MB-231) cells; assay: Antiproliferative assay (MTT or SRB), MDA-MB-231; assay type: cell-based; conditions: for IC50: Homo sapiens, MDA-MB-231, read-out: IC50 ± SD, antiproliferative activity; for Calculated Selectivity Index SI: IC50 Balb/3T3 / IC50 MDA-MB-231
Procedure: as §1

A549 cells = assay: Apoptosis/necrosis assay, Annexin V-FITC/PI flow cytometry; assay type: cell-based, human; conditions: for percentage of A549 cells undergoing apoptosis: 48 h, control 6.05 ± 0.17%; for induction of necrosis: A549, 48 h
Procedure: The rate of cell apoptosis and necrosis was detected using Annexin V-FITC/PI double staining. […] Compound 3e turned out to be a stronger inducer of apoptosis than 3c. […] In turn, compound 3c induced apoptosis only at the concentrations of 10 and 20 µM, and the percentage of cells undergoing apoptosis increased from 6.05 ± 0.17% in the control to 10.14 ± 0.76% and 14.67 ± 0.68%, respectively (Figure 4B). Moreover, compound 3e at a concentration of 5 µM induced apoptosis to a similar level as cisplatin (CDDP) used at a concentration of 4 µM. To identify the mechanism of the 3c- and 3e-induced apoptosis in the A549 cells, the activation of effector caspase-3 was evaluated by flow cytometry. […] To further explore the antiproliferative activity of compounds 3c and 3e, the influence of both compounds on the distribution of cell cycle phases in the A549 cells was analyzed. […] The G2 checkpoint prevents cells from entering mitosis when DNA is damaged, providing an opportunity for repair and stopping the proliferation of damaged cells. […] Apoptosis is a crucial process involved in the regulation of tumor formation and in the treatment response; therefore, cancer therapy has been linked to activation of the apoptosis signal transduction pathway. Caspase-3, an executioner caspase, plays an important role in apoptosis and becomes a primary target for cancer treatment.
The fluorescence-activated cell sorting (FACS) technique was employed to analyze the 3c- and 3e-induced cell death, the activation of executive caspase-3, and the cell cycle in the A549 cells. The quantitative analysis of apoptosis and necrosis was performed using an Annexin V-fluorescein isothiocyanate (FITC)/ propidium iodide (PI) apoptosis kit (BD Biosciences, BD Pharmingen™, San Jose, CA, USA) as previously described. To determine the active form of caspase-3, the A549 cells were plated into 6-well plates at a density of 6 × 10^5 cells/well. The next day, the growth medium was replaced with a fresh one supplemented with compound 3c or 3e (10, 20, and 40 µM) or the DMSO vehicle (0.1%; control cells). After 48-h incubation, the samples were harvested and the level of active caspase-3 was determined using the phycoerythrin (PE) Active Caspase-3 Apoptosis Kit (BD Pharmingen™) according to the manufacturer’s instructions. The stained cells were analyzed using FACS Calibur, and data were analyzed using Cell Quest Pro Version 6.0 (BD Biosciences, San Jose, CA, USA) for the Macintosh operating system. The results were calculated as a percent of cells with active caspase-3 among all the analyzed cells. The cell cycle analysis was performed by determination of the DNA contents on the basis of PI staining as previously described.
Figure 4 Effect of compounds 3c and 3e and cisplatin (CDDP) on apoptosis induction in the A549 cell line. After the 48-h exposure to the indicated concentrations of the compounds, the cells were stained with annexin (An) V-FITC)/propidium iodide (PI) and examined with flow cytometry. (A) The representative graphs obtained by flow cytometric analysis: dot plots indicate the percentage of An−/PI+ necrotic cells (Q1), An+ /PI+ late apoptotic cells (Q2), An−/PI− viable cells (Q3), and An+ /PI− early apoptotic cells (Q4). (B) Statistical analysis of the apoptotic (early + late apoptosis) and necrotic rate populations after the 3c, 3e, and cisplatin (CDDP) treatment. Data are presented as mean ± SD from three independent experiments; *** p < 0.001 in comparison to the control; one-way ANOVA followed by Dunnett’s post hoc test.

[4] = Spontaneous hydrolysis (chemical stability) in phosphate buffer, spectrophotometric; assay type: physicochemical; conditions: 0.05 M phosphate buffer, pH 7.3, 25 °C; for half-life: t1/2 = 0.693/k'
Procedure: Testing the stability of new drugs is of great importance for obtaining a good therapeutic profile as well as the safety of their future use. Degradation impurities can reduce drug efficacy and generate undesirable side effects.
The kinetics hydrolysis of the compounds was evaluated at 25 °C in 0.05 M phosphate buffer, pH 7.3, by measuring changes in absorbance spectra during incubation using a T60U spectrophotometer (PG Instruments). The absorbance (At) at characteristic absorption maxima for each compound was measured at 10 min intervals until there was no further decrease in absorbance (Aꝏ). Using these measurements, semilogarithmic plots of the dependence of log(At–Aꝏ) on time were prepared, and k’ values were determined from the slope of these plots according to first order reaction kinetics. Half-conversion times were calculated using equation: t1/2 = 0.693/k’.

[5] = test system: urinary bladder carcinoma (UMUC-3) cells; assay: Antiproliferative assay (MTT or SRB), UMUC-3; assay type: cell-based, human; conditions: for IC50: Homo sapiens, UMUC3, UMUC-3, read-out: IC50 ± SD, antiproliferative activity; for Calculated Selectivity Index SI: IC50 Balb/3T3 / IC50 UMUC-3
Procedure: as §1

[6] = test system: lung carcinoma (A549) cells; assay: Antiproliferative assay (MTT or SRB), A549; assay type: cell-based, human; conditions: for IC50: Homo sapiens, A549, A-549, read-out: IC50 ± SD, antiproliferative activity; for Calculated Selectivity Index SI: IC50 Balb/3T3 / IC50 A-549
Procedure: as §1

caspase-3 in A549 cells = assay: Active caspase-3 flow cytometry; assay type: cell-based, human; conditions: A549, 48 h; 10, 20 and 40 µM per method
Procedure: The rate of cell apoptosis and necrosis was detected using Annexin V-FITC/PI double staining. […] Compound 3e turned out to be a stronger inducer of apoptosis than 3c. […] In turn, compound 3c induced apoptosis only at the concentrations of 10 and 20 µM, and the percentage of cells undergoing apoptosis increased from 6.05 ± 0.17% in the control to 10.14 ± 0.76% and 14.67 ± 0.68%, respectively (Figure 4B). Moreover, compound 3e at a concentration of 5 µM induced apoptosis to a similar level as cisplatin (CDDP) used at a concentration of 4 µM. To identify the mechanism of the 3c- and 3e-induced apoptosis in the A549 cells, the activation of effector caspase-3 was evaluated by flow cytometry. […] To further explore the antiproliferative activity of compounds 3c and 3e, the influence of both compounds on the distribution of cell cycle phases in the A549 cells was analyzed. […]
The fluorescence-activated cell sorting (FACS) technique was employed to analyze the 3c- and 3e-induced cell death, the activation of executive caspase-3, and the cell cycle in the A549 cells. The quantitative analysis of apoptosis and necrosis was performed using an Annexin V-fluorescein isothiocyanate (FITC)/ propidium iodide (PI) apoptosis kit (BD Biosciences, BD Pharmingen™, San Jose, CA, USA) as previously described. […] The results were calculated as a percent of cells with active caspase-3 among all the analyzed cells. […]

## CCC1(CC)C(=O)N(c2ccc(-c3csc(Nc4cc(OC)c(OC)c(OC)c4)n3)cc2)C1=O [3c, 3,3-Diethyl-1-(4-(2-(3,4,5-trimethoxyphenylamino)thiazol-4-yl)phenyl)azetidine-2,4-dione]
[1]
  IC50: 4.59 ± 2.03 µM
  Calculated Selectivity Index SI: 1.62
[2]
  IC50: 0.0382 ± 0.00491 µM
[3]
  IC50: 6.38 ± 0.71 µM
  Calculated Selectivity Index SI: 1.16
A549 cells; 10 µM
  percentage of A549 cells undergoing apoptosis: 10.14 ± 0.76%
A549 cells; 20 µM
  percentage of A549 cells undergoing apoptosis: 14.67 ± 0.68%
A549 cells
  induction of necrosis: no induction of necrosis was observed
[4]
  k, rate constant of spontaneous hydrolysis: 0.015 min⁻¹
  half-life: 46.2 min
[5]
  IC50: 6.9 ± 0.21 µM
  Calculated Selectivity Index SI: 1.07
[6]
  IC50: 6.4 ± 0.08 µM
  Calculated Selectivity Index SI: 1.16
caspase-3 in A549 cells
  number of cells with active caspase 3: concentration-dependent increase in the number of cells with active caspase 3

## CCC1(CC)C(=O)N(c2ccc(-c3csc(Nc4ccc(S(N)(=O)=O)cc4)n3)cc2)C1=O [3e, 4-(4-(4-(3,3-Diethyl-2,4-dioxoazetidin-1-yl)phenyl)thiazol-2-ylamino)benzenesulfo-namide]
[1]
  IC50: 6.23 ± 0.42 µM
  Calculated Selectivity Index SI: 1.05
[2]
  IC50: 0.035 ± 0.00388 µM
[3]
  IC50: 6.42 ± 1.7 µM
  Calculated Selectivity Index SI: 1.02
A549 cells; 5 µM
  percentage of A549 cells undergoing apoptosis: 8.79 ± 0.50%
A549 cells; 10 µM
  percentage of A549 cells undergoing apoptosis: 14.45 ± 1.02%
A549 cells; 20 µM
  percentage of A549 cells undergoing apoptosis: 23.39 ± 0.31%
A549 cells
  induction of necrosis: no induction of necrosis was observed
[4]
  k, rate constant of spontaneous hydrolysis: 0.0175 min⁻¹
  half-life: 39.6 min
[5]
  IC50: 7.49 ± 0.64 µM
  Calculated Selectivity Index SI: 0.88
[6]
  IC50: 6.32 ± 0.89 µM
  Calculated Selectivity Index SI: 1.04
caspase-3 in A549 cells
  number of cells with active caspase 3: concentration-dependent increase in the number of cells with active caspase 3

From paper PMC9321231
